Experiments:
[1] = tested on: K. pneumoniae; assay: MIC50-90 against small panels (n = 35); assay type: cell-based; set-up: key: A: a MIC value measurement that is the same as that observed for polymyxin B; a MIC value measured that is lower than the comparable value observed for polymxin B; a MIC value measured that is higher than the comparable value observed for polymyxin B; settings: small panel n = 35; class relative to polymyxin B
Description: (§1) MIC's refer to the concentration of each antimicrobial agent required to inhibit the growth of a bacterial isolate, as well as the corresponding concentrations required to inhibit 50% and 90% of each group of microorganisms tested [MIC50 and MIC90, respectively, consistent with definitions in the “Instructions to Authors” for Antimicrobial Agents and Chemotherapy (Antimicrobial Agents and Chemotherapy, January 2010, p. 1-23, Vol. 54, No. 1, incorporated herein by reference)]. When only up to nine isolates of a species are tested, MIC's are reported as the MIC range of each antimicrobial agent tested. MIC values provided as numerical ranges for testing of a single bacterial strain indicate the range of MIC values obtained in repeated tests of the indicated bacteria strain.
(§2) Antibacterial potency can be assessed by broth microdilution according to CLSI guidelines, plates can be incubated at 37° C., and aeration (rotation at 200 rpm) can be employed. In some assays, surfactant (Survanta, Abbott Laboratories) can be added to give a final concentration of 1, 10 and 40% in caMHB. Native polymyxin A, polymyxin B and the comparator compound of Formula II (polymyxin B decapeptide with an o-chlorophenyl urea tail) were included for comparison.

[2] = tested on: P. aeruginosa; assay: MIC50-90 against small panels (n = 35); assay type: cell-based; set-up: key: A: a MIC value measurement that is the same as that observed for polymyxin B; a MIC value measured that is lower than the comparable value observed for polymxin B; a MIC value measured that is higher than the comparable value observed for polymyxin B; settings: small panel n = 35; class relative to polymyxin B
Description: as §1, §2

[3] = tested on: A. baumannii; assay: MIC50-90 against small panels (n = 35); assay type: cell-based; set-up: key: A: a MIC value measurement that is the same as that observed for polymyxin B; a MIC value measured that is lower than the comparable value observed for polymxin B; a MIC value measured that is higher than the comparable value observed for polymyxin B; settings: small panel n = 35; class relative to polymyxin B
Description: as §1, §2

[4] = tested on: E. coli; assay: MIC50-90 against small panels (n = 35); assay type: cell-based; set-up: key: A: a MIC value measurement that is the same as that observed for polymyxin B; a MIC value measured that is lower than the comparable value observed for polymxin B; a MIC value measured that is higher than the comparable value observed for polymyxin B; settings: small panel n = 35; class relative to polymyxin B
Description: as §1, §2

[5] = Acute toxicity testing in rats; assay type: in vivo, Sprague-Dawley rat; settings: 1 mg/kg i.v.
Protocol: One female Sprague-Dawley rat was administered a 1 mg/kg dose of the test Compound 5. Clinical observations were taken immediately following the administration of compound and at 0.5, 1, 2 and 4 hours post-dose.

[6] = tested on: A. baumannii 1570; assay: MIC against the primary screening panel (broth microdilution); assay type: cell-based; set-up: key: A: a MIC value measurement that is the same as that observed for polymyxin B; a MIC value measured that is lower than the comparable value observed for polymxin B; a MIC value measured that is higher than the comparable value observed for polymyxin B; settings: class relative to polymyxin B
Protocol: as §2

[7] = tested on: K. pneumoniae 1800 (PMX-resistant); assay: as above; assay type: cell-based; set-up: key: A: a MIC value measurement that is the same as that observed for polymyxin B; a MIC value measured that is lower than the comparable value observed for polymxin B; a MIC value measured that is higher than the comparable value observed for polymyxin B; settings: class relative to polymyxin B
Protocol: as §2

[8] = tested on: K. pneumoniae 933; assay: as above; assay type: cell-based; set-up: key: A: a MIC value measurement that is the same as that observed for polymyxin B; a MIC value measured that is lower than the comparable value observed for polymxin B; a MIC value measured that is higher than the comparable value observed for polymyxin B; settings: class relative to polymyxin B
Protocol: as §2

[9] = tested on: P. aeruginosa 44; assay: as above; assay type: cell-based; set-up: key: A: a MIC value measurement that is the same as that observed for polymyxin B; a MIC value measured that is lower than the comparable value observed for polymxin B; a MIC value measured that is higher than the comparable value observed for polymyxin B; settings: class relative to polymyxin B
Protocol: as §2

[10] = tested on: P. aeruginosa 44; assay: Neutropenic mouse lung infection model; assay type: in vivo
Protocol: Compound of Formula (Ia) was tested in a murine thigh model. For the thigh model, female CD-1 mice were rendered neutropenic by IP injection on days −4 and −1 with 150 and 100 mg/kg cyclophosphamide, respectively. On day 0 mice were infected with 1×10^7 colony-forming units (cfu) of A. baumannii 1570 in one thigh muscle, and then administered compound SC in a dose ranging from 2 to 12 mg/kg at 1 and 6 hours post-infection.
The mouse lung model was run in the same manner as the thigh infection model, except that mice were infected IN with 1×10^7 cfu of P. aeruginosa 44 on day 0. Doses administered in the lung study ranged from 8 to 20 mg/kg. The ED−3log10 was based on cfu determination from the lung tissue 24 hours post-infection.

[11] = tested on: E. coli; assay: MIC50 and MIC90, panel of Gram negative bacterial strains (CLSI broth microdilution); assay type: cell-based; set-up: key to E. coli MIC50 / E. coli MIC90: A: a measured MIC value equal to that of polymyxin B; a measured MIC value less than the corresponding MIC value measured for polymyxin B; a measured MIC value greater than the corresponding MIC value measured for polymyxin B
Protocol: The potency and spectrum of Compound 5 was studied using a panel of Gram negative bacterial strains.
MIC testing can be performed according to Clinical and Laboratory Standards Institute (CLSI) M7-A7 (2006) broth microdilution methods. Unless otherwise indicated, MIC values are provided in units of micrograms per milliliter.
One day prior to testing, individual colonies were isolated by streaking onto rich, non-selective Tryptic Soy agar with 5% lysed sheeps blood (TSAB) with incubation at 35-37° C. for 18-24 hours.
Cultures were prepared by touching 3-5 colonies into 3 mL of cation-adjusted Mueller Hinton Broth (caMHB) in a 14-mL tube (caMHB was prepared and sterilized according to manufacturer's specifications).
OD600 of growing cultures was measured and adjusted to approximately 10^5 colony forming units per mL (CFU/mL) in caMHB for MIC inoculation (approximately OD600 0.001).
Diluted cultures were used to inoculate 50 μL per well in broth microdilution assays (final volume 100 μl per well; compounds were prepared in two-fold dilutions).
Plates were incubated 16-20 hours at 37° C., with shaking at 200 rpm.
OD600 was determined for all wells. Growth was defined as OD600>0.1. MICs were defined as the lowest concentration producing no visible turbidity (OD600<0.1).

[12] = class relative to polymyxin B, some strains multi-drug resistant

CC(C)C[C@H]1NC(=O)[C@H](CCN)NC(=O)[C@@H](NC(=O)[C@@H](CCN)NC(=O)[C@@H](NC(=O)[C@H](CCN)NC(=O)[C@H]2C[C@@H]2c2ccccc2)C(C)O)CCNC(=O)[C@H](C(C)O)NC(=O)[C@H](CCN)NC(=O)[C@H](CCN)NC(=O)[C@H](C(C)O)NC1=O (single isomer, unassigned) [Compound 5]
K. pneumoniae MIC50 [1]: C | K. pneumoniae MIC90 [1]: C | P. aeruginosa MIC50 [2]: A | P. aeruginosa MIC90 [2]: C | A. baumannii MIC50 [3]: C | A. baumannii MIC90 [3]: C | E. coli MIC50 [4]: C | E. coli MIC90 [4]: A | Acute (anaphylactoid) observations ([5]; 1 female Sprague-Dawley rat): anaphylactoid response was observed | Clinical signs by 0.5 hours ([5]; female Sprague-Dawley rat): these signs diminished, but the rat remained hypoactive | Clinical signs by 1 hour ([5]; female Sprague-Dawley rat): no clinical signs and appeared normal | Clinical signs immediately following the dose ([5]; female Sprague-Dawley rat): flushed ears, abnormal gait, hypoactivity and squinty eyes | MIC A. baumannii 1570 [6]: C | MIC K. pneumoniae 1800 (PMX-resistant) [7]: C | MIC K. pneumoniae 933 [8]: A | MIC P. aeruginosa 44 [9]: C | Lungs cleared within one log10 of limit of detection ([10]; mouse lung model, 8 through 20 mg/kg dose levels): Lungs cleared within one log10 of limit of detection | ED−3log10 ([10]; neutropenic mouse lung, P. aeruginosa 44, SC, BID×1d, cfu 24 hours post-infection, experiment with Formula (Ia)): 6.35 mg/kg | activity against E. coli isolates [11]: active | E. coli MIC50 [11, 12]: C | E. coli MIC90 [11, 12]: A

From patent publication US8415307B1, “Antibiotic compositions for the treatment of gram negative infections” (priority 2010, dated 2013)
